Patent US9464064B2, “HCV helicase inhibitors and methods of use thereof” (University of Kansas, priority 2011, dated 2016)
Positions of bridges follow the written chain, without caps; N, C: chain ends. Non-standard residues stand in square brackets, D forms with d. Residues, ends and D or L forms follow the SMILES beside them. ξ: configuration not given here. *: point of attachment. ξNMePhe(4-NMe2) = CNC(Cc1ccc(N(C)C)cc1)C(=O)O; Picolinoyl(3-OH) = O=C(c1ncccc1O)*; ξPip(4-oxo) = O=C1CCNC(C(=O)O)C1; Phg = N[CH](C(=O)O)c1ccccc1; Abu = CC[CH](N)C(=O)O

Target: T1, HCV NS3 helicase NS3h_1b(con1) (Hepatitis C virus genotype 1b, UniProt Q9WMX2)
T1 construct: truncated C-terminally His-tagged NS3 proteins lacking the N-terminal protease, called NS3h; His-tag (C); made in house
T1 sequence (Q9WMX2 1192-1657): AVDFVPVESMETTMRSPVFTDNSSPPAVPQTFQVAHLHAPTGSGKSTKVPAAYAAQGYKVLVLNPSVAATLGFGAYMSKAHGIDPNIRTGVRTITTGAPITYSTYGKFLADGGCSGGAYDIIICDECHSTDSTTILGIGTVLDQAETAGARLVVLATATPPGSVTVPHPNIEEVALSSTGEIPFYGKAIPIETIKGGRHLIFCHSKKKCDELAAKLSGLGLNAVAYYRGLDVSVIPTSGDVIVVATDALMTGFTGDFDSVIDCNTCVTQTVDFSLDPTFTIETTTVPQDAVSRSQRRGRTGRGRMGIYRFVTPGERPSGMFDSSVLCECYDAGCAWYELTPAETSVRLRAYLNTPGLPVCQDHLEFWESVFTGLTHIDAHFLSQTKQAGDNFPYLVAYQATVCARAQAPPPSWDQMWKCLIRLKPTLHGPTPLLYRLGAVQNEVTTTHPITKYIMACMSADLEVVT
Test: MBHA screen of NCI mechanistic set library at 20 μM (percent inhibition, compound interference)
Format: biochemical
Details: compounds at 20 μM; for Inh. (%) (Inhibition): calculated from Equation 1
How it was run: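 Molecular beacon-based DNA unwinding assay; compounds screened at 20 μM in triplicate, with DMSO-only negative and 500 nM dT20 positive controls. Fluorescence (ex 643/em 670 nm) was read before and 30 min after adding ATP to 1 mM. Percent inhibition came from the change relative to DMSO controls; interference from pre-ATP fluorescence versus DMSO controls.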

[1] = assay interference calculated with Equation 2 (fluorescence vs DMSO-only controls before ATP)
[2] = MBHA with DNA substrate, assay interference calculated with Equation 2

Structure (SMILES) | Inh. (%) (Inhibition) (MBHA with a DNA substrate) | Int.* (Ratio) (Interference) [1] | Int.* (Ratio) (Interference) [2] | Inh. (%) (Inhibition) (MBHA with DNA substrate)
CC(/C=C/C(O)=C1/C(=O)CNC1=O)=C\[C@@H](C)[C@H]1O[C@]2(C)O[C@@H](C(=O)[C@@H]3O[C@@]32C)[C@@H]1C [Compound 107067] | −6.0 | 0.90 |  | 
CO[C@@H]1[C@@H](OC(=O)c2ccc(C)[nH]2)[C@@H](O)[C@H](Oc2ccc3c(O)c(NC(=O)c4c[nH]c(C(=O)Nc5c(O)c6ccc(O[C@@H]7OC(C)(C)[C@H](OC)[C@@H](OC(=O)c8ccc(C)[nH]8)[C@H]7O)c(C)c6oc5=O)c4C)c(=O)oc3c2C)OC1(C)C [Compound 107412] |  |  | 0.83 | 0.0
O=C1C=C2C=CC3CC2(O1)C1CCCCN31 (stereo not shown) [Compound 107415] |  |  | 0.97 | −15.2
CCC1CN2CCc3cc(OC)c(OC)cc3C2CC1CC1c2cc(OC)c(OC)cc2CCN1C(=O)C(Cc1c[nH]c2ccccc12)NC(=O)OC(C)(C)C (stereo not shown) [Compound 109350] |  |  | 0.92 | −9.3
CN1CCCC2C(c3ccccc3)C(C3=NCCCC3)C(c3ccccc3)CC21.Cl (stereo not shown) [Compound 109444] | 7.2 | 1.01 |  | 
N=C1C=C(N)C(=O)c2[nH]c(=O)ccc21 [Compound 111041] | −26.9 | 0.97 |  | 
CCOC(=O)c1cc2c(OC)cc(OC)cc2oc1=O [Compound 111119] |  |  | 1.16 | 6.3
C=C(C)[C@@H]1CC[C@]2(C(=O)O)CC[C@]3(C)[C@H](CC[C@@H]4[C@@]5(C)CC[C@H](O)C(C)(C)[C@@H]5CC[C@]43C)[C@@H]12 [Compound 113090] | −29.5 | 1.00 |  | 
CC(C)(O)CCC(O)C(C)(O)C1CCC2(O)C3=CC(=O)C4(O)CC(O)C(O)CC4(C)C3CCC12C.CC(C)(O)CCC(O)C(C)(O)C1CCC2(O)C3=CC(=O)C4CC(O)C(O)CC4(C)C3CCC12C (stereo not shown) [Compound 115493] | 7.3 | 0.94 |  | 
CCOC(=O)Cc1c(C)c2cc(C(=O)c3ccccc3)c(O)cc2oc1=O [Compound 115538] |  |  | 1.02 | −12.6
Oc1[nH]c2ccccc2c1N=Nc1c(F)c(F)c(F)c(F)c1F [Compound 116535] |  |  | 0.93 | 5.9
Cc1ccc([S+](c2ccccc2)c2cc(C)ccc2C)cc1.O=C(OC(C(=O)[O-])C(OC(=O)c1ccccc1)C(=O)O)c1ccccc1 (stereo not shown) [Compound 116693] |  |  | 0.92 | −1.8
Cc1ccc2[nH]c(O)c(N=Nc3ccccc3[N+](=O)[O-])c2c1 [Compound 117915] |  |  | 1.00 | 1.4
Cc1ccc2[c](c1)[Sn]([c]1ccccc1)([c]1ccccc1)[c]1cc(C)ccc1N2C [Compound 118030] |  |  | 0.92 | −13.1
Cc1ccc(C)c2c(N=Nc3ccccc3[N+](=O)[O-])c(O)[nH]c12 [Compound 118732] |  |  | 0.89 | 14.2
Cc1ccc(Cl)c2c(N=Nc3ccccc3[N+](=O)[O-])c(O)[nH]c12 [Compound 118735] | −5.2 | 0.96 |  | 
CNc1nc(N(C)C)nc(N(C)C)n1 [Compound 118742] | 10.6 | 1.01 |  | 
S=C=NCc1ccccc1 [Compound 118976] |  |  | 0.96 | 13.9
Cc1c2ccncc2c(C)c2c1sc1ccccc12 [Compound 119686] | 8.9 | 1.18 |  | 
N.N.[Cl][Pt][Cl] [Compound 119875] |  |  | 0.83 | 25.1
CCCNC1=C(C)C(=O)C2=C(C1=O)[C@H](COC(N)=O)[C@]1(OC)[C@@H]3N[C@@H]3CN21 [Compound 123115] | −25.7 | 0.96 |  | 

Structure (SMILES) | Inh. (%) (Inhibition) (MBHA with a DNA substrate) | Int.* (Ratio) (Interference) [1] | Int.* (Ratio) (Interference) [2] | Inh. (%) (Inhibition) (MBHA with DNA substrate)
Cc1c(N)nc([C@H](CC(N)=O)NC[C@H](N)C(N)=O)nc1C(=O)N[C@H](C(=O)N[C@H](C)[C@@H](O)[C@H](C)C(=O)N[C@H](C(=O)NCCc1nc(-c2nc(C(=O)NCCC[S+](C)C)cs2)cs1)[C@@H](C)O)[C@@H](OC1OC(CO)C(O)C(O)C1OC1OC(CO)C(O)C(OC(N)=O)C1O)c1cnc[nH]1 (stereo partly shown) [Compound 125066] |  |  | 0.79 | 15.8
CC1=C\C(O)CC(=O)Cc2nc(co2)C(=O)N2CCC=C2C(=O)OC(C(C)C)C(C)/C=C/C(=O)NC/C=C\1.CCC1NC(=O)C(NC(=O)c2ncccc2O)C(C)OC(=O)C(c2ccccc2)NC(=O)C2CC(=O)CCN2C(=O)C(Cc2ccc(N(C)C)cc2)N(C)C(=O)C2CCCN2C1=O (stereo not shown) [Compound 125176] ({Picolinoyl(3-OH)}-T[Abu]P[ξNMePhe(4-NMe2)][ξPip(4-oxo)][Phg]; ester 1-C; configuration not given here) | −20.2 | 0.90 |  | 
O=C1C(=O)c2ccccc2C(O)=C1CC=C(Cl)Cl [Compound 126771] |  |  | 1.12 | −9.7
COc1ccc(-c2cc(=O)c3c(O)cc(O)cc3o2)cc1OC [Compound 128305] | −4.3 | 0.99 |  | 
c1ccc2c(c1)nnn1c3cnccc3nc21 [Compound 128734] | −3.1 | 0.91 |  | 
CCC1=C(C[C@H]2NCCc3cc(OC)c(OC)cc32)C[C@H]2c3cc(OC)c(OC)cc3CCN2C1 [Compound 129414] | 12.0 | 1.08 |  | 
CC(CN1CC(=O)NC(=O)C1)N1CC(=O)NC(=O)C1 (stereo not shown) [Compound 129943] | −5.2 | 1.13 |  | 
COC1=C(N)C(=O)c2nc(C)ccc2C1=O [Compound 132493] | −22.9 | 1.07 |  | 
CC[C@](C)(O)C(=O)O[C@H]1C(=O)O[C@@H]2C[C@H]3C(C)=CC(=O)[C@@H](O)[C@]3(C)[C@H]3C4(O)OC[C@]32[C@@H]1[C@@H](C)[C@H]4O [Compound 132791] | 8.2 | 0.98 |  | 
Br.COC1CN(C)C(=Nc2cccc3ccccc23)S1 (stereo not shown) [Compound 135996] |  |  | 1.07 | −14.0
CC1=CC23C(COC(=O)C24CO4)C(C(=O)O)=CC3C1C.NCc1ccccc1 (stereo not shown) [Compound 136037] |  |  | 1.00 | 3.9
CC[C@@]1(O)C[C@H](OC2CC(N(C)C)C(O)C(C)O2)c2c(O)c3c(c(O)c2[C@H]1OC1CC(N(C)C)C(O)C(C)O1)C(=O)c1cccc(O)c1C3=O (stereo partly shown) [Compound 136044] |  |  | 0.33 | 47.9
CCCC(=O)OCC1OC(n2ccc(N)nc2=O)C(OC(=O)CCC)C1OC(=O)CCC (stereo not shown) [Compound 138429] | 10.9 | 1.09 |  | 
CCS(=O)(=O)O.CN(C)C(=O)c1cccc(COc2ccc(N3C(N)=NC(N)=NC3(C)C)cc2Cl)c1 [Compound 139105] | 7.0 | 0.98 |  | 
Cc1cccc(NC(=O)/C=C/c2ccc([N+](=O)[O-])cc2)c1 [Compound 139109] |  |  | 1.06 | −1.2
CN1c2c(nc(N)[nH]c2=O)NCC1CCNc1ccc(C(=O)N[C@@H](CCC(=O)[O-])C(=O)[O-])cc1.[Na+].[Na+] (stereo partly shown) [Compound 139490] |  |  | 0.95 | −13.8
CC(C)=CCC(OC(=O)C=C(C)C)C1=CC(=O)c2c(O)ccc(O)c2C1=O (stereo not shown) [Compound 140377] | 9.4 | 0.93 |  | 
O=S(=O)(c1cccc(N=C=S)c1)c1cccc(N=C=S)c1 [Compound 140911] |  |  | 0.99 | 3.1
CCN(CC)CCNc1ccc(CO)c2sc3ccccc3c(=O)c12 [Compound 142982] |  |  | 0.75 | 53.1
Cl.NC(=O)c1cn(C2OC(CO)C(O)C2O)c2ncnc(N)c12 (stereo not shown) [Compound 143648] | −4.1 | 0.99 |  | 
